Earlier results as cited in patent publication US6998494B2, “Preparation of trans-fused 3,3a,8,12b-tetrahydro-2h-dibenzo[3,4:6,7]cyclohepta[1,2-b]furan derivatives” (Janssen Pharmaceutica N.V., priority 2001, dated 2006).

Conditions: dose of 300 mg/kg

SMILES: CNCC1CC2c3ccccc3Cc3ccccc3C2O1.O=C(O)C(=O)O (racemic) [(±)-3,3a,8,12b-tetrahydro-N-methyl-2H-dibenzo[3,4:6,7]-cyclohepta[1,2-b]furan-2-methanamine oxalic acid]
- activity as an antidepressant: inactive
